Assay results from a melting point compilation (Tetko et al.; mined from patent text by program, amines drawn as free bases though some values may be those of a salt).

SMILES	melting point [°C]
COc1ccsc1C1OC(=O)NC1=O (stereo unspecified)	156 to 158
CN1Cc2c(CO)ncn2-c2cccc(Cl)c2C1=O	207 to 208
CC(O)(C#CI)c1ccc(OC(F)(F)F)cc1 (stereo unspecified)	75 to 76
NS(=O)(=O)c1cc(NC(=O)c2cnn3c(C(F)(F)F)cc(-c4ccc(C(F)(F)F)cc4)nc23)c(Cl)s1	275
ClCC1CCN(C(c2ccccc2)c2ccccc2)CC1	73 to 75
COc1ccc2nc3c(nc2c1)SC(C#N)=C(C#N)S3	154 to 156
COc1cc(NC(N)=S)cc(OC)c1OC	203 to 205
CC(c1c[nH]cn1)c1cccc(CO)c1O (stereo unspecified)	135 to 136
Cc1cc(Cl)c([N+](=O)[O-])cc1NCCO	110
CC1(C)CC(S(=O)(=O)Cc2c(Cl)nn(C(F)F)c2C(F)(F)F)=NO1	136 to 137
COc1ccc(C(C)(C)C)c(O)c1-c1nc2cc(S(=O)(=O)C(F)(F)F)ccc2[nH]1	55 to 56
CCC(Oc1cccc(C(F)F)c1Cl)C1=NCCN1 (stereo unspecified)	96 to 97
COC(=O)C(C)OC(=O)c1cc(-n2c(=O)cc(C(F)(F)F)n(C)c2=O)c(F)cc1Cl (stereo unspecified)	102 to 104
CCCCCCCCCCCCNC(=O)c1cc(-c2cccc(OC)c2)c(OCC(=O)O)c(-c2cccc(OC)c2)c1	57 to 58
CC1(C)CC(N(CCCCCCN(c2nc(Cl)nc(Cl)n2)C2CC(C)(C)NC(C)(C)C2)c2nc(Cl)nc(Cl)n2)CC(C)(C)N1	161 to 163
CCCCOCCOc1ccc(-c2ccc3c(c2)C=C(C(=O)Nc2ccc(C(O)c4ccccn4)c(C)c2)CCN3C(=O)C(F)(F)F)cc1 (stereo unspecified)	122 to 125
Cc1nc(C)n2c1CN=C(c1ccccc1F)c1cc(Cl)ccc1-2	178 to 180
C=C(C)Cc1c(C)c(NC=O)c(C)c(CC(=C)C)c1O	169 to 170
O=C(O)CN1C(=O)C(=Cc2ccc(Cl)cc2Cl)SC1=S	> 237
CCCCC(=O)Nc1ccc(Cl)cc1C(=O)OC	48 to 49

SMILES	melting point [°C]
O=C(O)CSC(c1ccccc1)c1ccccc1	126 to 129
O=c1[nH]nnn1-c1ccc(Cl)cc1F	185 to 187
CC(=O)c1oc2ccccc2c1NC(=O)/C(C#N)=C(/C)O	206 to 208
CS(=O)c1[nH]ccc1[N+](=O)[O-] (stereo unspecified)	162 to 164
CCCCCCCCCCCCc1ccccc1C(Sc1nc(CCC)c(C(=O)O)n1C)C(=O)O (stereo unspecified)	124 to 125
NC1([C@@H]2CCN(c3ccc4c(=O)c(C(=O)O)cn(C5CC5)c4c3OC(F)F)C2)CC1	206 to 208
CN(C(=O)C(F)(F)F)C1(C)CN(c2nc3c(cc2F)c(=O)c(C(=O)O)cn3C(C)(C)C)C1	263 to 265
CNC(=O)NS(=O)(=O)c1ccccc1OCCCl	218 to 222
Cc1[nH]n(-c2ccccc2)c(=O)c1C(=O)C(C)C	61 to 62
CCON=C(CC)C1=C(O)CC(c2c(C)c(C)c3c(c2Cl)CC(C)(CC)C3)CC1=O (stereo unspecified)	93 to 94
FC(F)(F)c1c[nH]c(-c2cccc(OCC3CO3)c2)n1 (stereo unspecified)	145 to 146
COc1cccc(CN2CCN(C(=S)SC)CC2)c1OC	110 to 111
Nc1ccccc1NCCCCCCCCCCCCNc1ccccc1N	85 to 88
CCCCNC(=O)NS(=O)(=O)c1c(C)nn(C)c1OC	135 to 142
CCCn1nc2c(N)nc3ccccc3c2c1CC(C)(C)S(C)(=O)=O	202 to 204
COc1cc2ncnc(N3CCN(c4ccc5c(c4)CCC(=O)N5)CC3)c2cc1OC	261 to 262
COCCOc1ccc(-c2sc(N3C(=O)c4ccccc4C3=O)c(C(=O)c3ccc(Cl)cc3)c2CBr)cc1	142 to 145
CC(C)Oc1cc(O)c(C(=O)C=Cc2ccccc2OC(C)C)c(OC(C)C)c1	119 to 120
CC(C)c1nn(-c2ccc(Cl)cn2)cc1CO	135 to 136
Cc1nc(-c2ccc(F)cc2)c(COc2ccc(-c3nc4cc(C(=O)O)ccc4n3C3CCCCC3)cc2)s1	196 to 198

SMILES	melting point [°C]
CC1(CCCN)NC(=O)NC1=O (stereo unspecified)	183 to 185
COc1ccc(-c2cc(=Nc3c(C)cc(C)cc3C)n(C)c(NNC=O)n2)cc1OC	136 to 143
CC(=O)N1CCN(Cc2nnc(-c3cc4cccc(N(C)S(=O)(=O)c5cccs5)c4[nH]3)s2)CC1	194 to 195
C=C(CC(=O)c1ccc(Cl)c(Cl)c1)C(=O)O	156 to 157
CC(CS(=O)(=O)c1ccc(-c2ccc(C(F)(F)F)cc2)cc1)N(O)C=O (stereo unspecified)	175
O=C(O)C1=Cc2cc(F)c(N3CCC4(C3)OCCCO4)nc2N(c2ccc(F)cc2F)C1	145 to 146
O=C(O)CCCCCCCCCCc1cccs1	41 to 42
O=C1NC(C2CCCCC2)C1O (stereo unspecified)	140
O=c1ccn([C@@H]2C[C@H](O)[C@@H](O)[C@H]2O)c(=O)[nH]1 (racemic)	229 to 230
CN(C)C(=O)n1nc(C(C)(C)C)cc1S(C)=O (stereo unspecified)	95 to 96
O=C(O)CCCN1CCN(Cc2ccc3c(c2)-c2[nH]nc(-c4ccsc4)c2C3)CC1	195 to 198
NNC(=O)Cn1c(=S)sc2ccccc21	214 to 215
CCCn1c(=O)c(C=C(C#N)C#N)c2n(c1=O)CCS2	135 to 137
CC(=O)Oc1cc2c(s1)CCN(C(C(=O)C1CC1)c1ccccc1F)C2 (stereo unspecified)	120 to 122
O=C(N[C@@H](Cc1ccccc1)C(=O)N[C@@H](Cc1cncn1COCc1ccccc1)C(=O)O)C1CCCC1	195 to 197
CCc1[nH]n(C2CCCC2)c2nc(Cc3cccn3C)nc(=O)c1-2	214 to 216
CCOC(=O)c1cc(CC)sc1Nc1cc(C)ccc1[N+](=O)[O-]	55 to 57
Nc1ccc(C(=O)O)cc1S(N)(=O)=O	214 to 219
CC(C)NCCCCCCOc1ccc(O)cc1	78 to 86

The next lines start with the values.

melting point [°C]	SMILES
58 to 61	NNC(=O)OCCOc1ccc(C(=O)c2ccccc2)c(O)c1
61.5 to 62.5	Cc1cccc(C(=O)C(=O)c2ccccc2)c1C
89 to 90.5	CN1C(=O)Cc2cccc(C(=O)c3ccccc3)c21
154 to 155	Cc1cc(C)nc([NH+]([O-])C(=O)Cc2cccs2)c1 (stereo unspecified)
145 to 147	NC[C@H]1C=Cc2cc(F)cc(-c3ccccc3Cl)c2O1
289 to 292	COc1ccc(-c2nc3c(C(N)=O)cccc3n2C)cc1
244 to 245	CC(=O)NC[C@H]1CC(c2ccc(-c3ccncc3)cc2)=NO1
101 to 104	Cc1c(Cc2cccnc2)ccc2ccc(Br)cc12
49 to 50	CNCCCCOc1ccc2c(ccn2-c2ccc(F)cc2)c1
128 to 132	CN(CC(O)C(N)C(=O)c1cccc(C(F)(F)F)c1)c1ccc(Cl)cc1 (stereo unspecified)
171	Cn1cncc1C(c1ccc(Cl)cc1)c1ccc2c(c1)c(-c1nc(-c3ccccc3)cs1)cc(=O)n2C (stereo unspecified)
177 to 179	Cc1ccccc1N1CCN(C2CCc3cc(O)ccc3C2)CC1 (stereo unspecified)
136 to 138	Cc1cc(-c2ccc(Cl)c(Cl)c2)n(-c2ccc(S(N)(=O)=O)cc2)c1
181 to 182	O=C(O)CCc1conc1-c1ccc(Cl)c(Cl)c1
122	COc1ccc(Cn2cnc3c(-c4ccco4)nc(OCc4ccccc4)nc32)cc1
192 to 194	N#Cc1c(C#N)n(-c2ccc(Cl)cc2)c(=O)n1Cc1ccccc1
126 to 127	CCOC(=O)CC1CCc2cncn2C1c1ccc(C#N)cc1 (stereo unspecified)
54	O=c1oc(CO)nn1Cc1ccccc1
235 to 238	COc1cc2c(cc1OC)C(c1ccnc(-n3nc(-c4cccnc4)c4ccccc4c3=O)c1)=N[C@H](CO)C2
133 to 134	FC(F)(F)c1cccc(N2CCN(Cc3n[nH]c4c(Cl)cccc34)CC2)c1
131 to 133	Cc1ccc(C(=O)Nc2ccc(N3CCNCC3)cc2)c(-c2ccc(C(C)C)cc2)c1

melting point [°C]	SMILES
76 to 77	Cc1ccc2c(n1)CC(c1ccccc1C)CC2=O (stereo unspecified)
84	Cc1c(Cl)cccc1S(=O)(=O)Nc1nc(CC(=O)N(C)C)cs1
202 to 203	Cc1cccc(C(=O)Nc2c(NC(=O)CCl)ccc3c2C(=O)c2ccccc2C3=O)c1
133 to 134	Cc1oc(-c2ccccc2)nc1COc1ccc(COc2nn(Cc3ccccc3)cc2C=O)cc1
126 to 128	NC(=O)N(O)CC=Cc1ccccc1Sc1ccc(Cl)cc1
98 to 100	CCOC(=O)c1cc(=O)c2c(OCC(O)COc3ccc(Cl)cc3)cccc2o1 (stereo unspecified)
170 to 173	CCc1noc(C)c1-c1[nH]c2ccccc2c1C(C)=O
118 to 120	CCCCC(=O)N(Cc1cccc(OC)c1)c1cc(F)cc(-c2nnn[nH]2)c1
140 to 145	CCc1cc(C(=O)c2ccccc2Cl)c(-n2c(C)nnc2CNC(=O)c2c[nH]c3ccccc23)s1
170	Cc1nccn1CCN1CCC(Nc2nc3ccccc3n2Cc2ccc(F)cc2)CC1
240 to 242	CC(=NOCCOc1ccc(CC2SC(=O)NC2=O)cc1)c1ccc(O)nc1 (stereo unspecified)
209 to 211	Oc1ccc2c(-c3ccccn3)noc2c1Cl
229 to 231	CCOc1cc(Cc2cnc(N)nc2N)cc(OCC)c1C(C)=O
254 to 255	Nc1nc(Nc2ccc(S(N)(=O)=O)cc2)sc1C(=O)c1sc(Br)cc1Br
296 to 298	CC(=C1SC(=O)NC1=O)c1ccc(OCCOc2c(-c3ccc(F)c(F)c3)n(C)c3cc(Cl)ccc3c2=O)cc1
225 to 226	COc1ccccc1-n1c(-c2sc(Nc3ccc(Cl)cc3)nc2C)nc2ccccc2c1=O
232	C[C@@H](Nc1ncnc2cc(N)ncc12)c1ccccc1
140	COc1ccccc1[C@H]1CC[C@@H](c2ccccc2)N1C(=O)CNC(=O)Nc1cccc(CC(=O)O)c1 (racemic)
90 to 91	CCOC(=O)CCc1cccc(OCc2ccc(OCc3nc(-c4ccccc4)oc3C)cc2)c1
128 to 130	Cc1c(Br)c2cnnc(OCc3ccc(F)cc3)c2n1Cc1ccccc1
125 to 128	C=Cc1cccc2[nH]cc(S(=O)(=O)c3ccccc3)c12
